Measurements as given in patent publication US20230051589A1, “COMPOUNDS AND COMPOSITIONS FOR TREATING CONDITIONS ASSOCIATED WITH NLRP ACTIVITY” (Novartis AG, priority 2018, published 2023).

System: IL-1β production in PMA-differentiated THP-1 cells
Assay: IL-1β production in PMA-differentiated THP-1 cells stimulated with gramicidin (hTHP-1 assay, 2% fetal bovine serum; Procedures 1-3)
Format: cell-based, human
Settings: Homo sapiens, THP-1, hTHP-1 assay containing 2% fetal bovine serum, Table B2, class symbols; read-out: IC50
Summary of the method: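 IL-1β released into supernatants was read by HTRF after 2 h gramicidin (5 μM) challenge. Before challenge, compounds (3-fold dilutions, top 100 μM, 0.37% DMSO) were given 1 h on THP-1 cells differentiated with PMA (20 ng/ml, 16-18 h) and held in 2% FBS medium.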

Row | IC50 [µM] | SMILES
1 | 1 to 5 | CN(Cc1ccc(S(N)(=O)=NC(=O)Nc2c3c(cc4c2CCC4)CCC3)cc1)CC(F)F (single isomer, unassigned) [Example 610, (R) or (S)-4-(((2,2-difluoroethyl) (methyl)amino)methyl)-N′-((1,2,3,5,6,7-hexahydro-s-indacen-4-yl)carbamoyl) benzenesulfonimidamide]
2 | 5 to 30 | CC(C)N(C)c1ccc(S(N)(=O)=NC(=O)Nc2c3c(cc4c2CCC4)CCC3)cc1 (single isomer, unassigned) [Example 615, (R) or (S)-N′-((1,2,3,5,6,7-hexahydro-s-indacen-4-yl)carbamoyl)-4-(isopropyl(methyl)amino) benzenesulfonimidamide]

Second part, the molecule before the results:

Row | SMILES | IC50 [µM]
3 | COc1cc(CN(C)C)ccc1S(N)(=O)=NC(=O)Nc1c2c(cc3c1CCC3)CCC2 (single isomer, unassigned) [Example 606, (R) or (S)-4-((dimethylamino)methyl)-N′-((1,2,3,5,6,7-hexahydro-s-indacen-4-yl)carbamoyl)-2-methoxybenzene-sulfonimidamide] | 0.2 to 1
4 | NS(=O)(=NC(=O)Nc1c2c(cc3c1CCC3)CCC2)c1ccc(CN2CCC(F)(F)C2)cc1 (single isomer, unassigned) [Example 620, (R) or (S)-4-((3,3-difluoropymolidin-1-yl)methyl)-N′-((1,2,3,5,6,7-hexahydro-s-indacen-4-yl)carbamoyl) benzenesulfonimidamide] | 1 to 5

Same assay, conditions: Homo sapiens, THP-1, hTHP-1 assay containing 2% fetal bovine serum, Table B2, given as bound; read-out: IC50

Row | IC50 [µM] | SMILES
5 | > 30 | CN(Cc1ccc(S(N)(=O)=NC(=O)Nc2c3c(cc4c2CCC4)CCC3)cc1)CC(F)(F)F (single isomer, unassigned) [Example 608, (R) or (R)-N′-((1,2,3,5,6,7-hexahydro-s-indacen-4-yl)carbamoyl)-4-((methyl(2,2,2-trifluoroethyl)amino)methyl) benzenesulfonimidamide]
6 | > 30 | CN(Cc1ccc(S(N)(=O)=NC(=O)Nc2c3c(cc4c2CCC4)CCC3)cc1)CC(F)F (single isomer, unassigned) [Example 611, (S) or (R)-4-(((2,2-difluoroethyl) (methyl)amino)methyl)-N′-((1,2,3,5,6,7-hexahydro-s-indacen-4-yl)carbamoyl) benzenesulfonimidamide]
7 | > 30 | CC(C)N(C)c1ccc(S(N)(=O)=NC(=O)Nc2c3c(cc4c2CCC4)CCC3)cc1 (single isomer, unassigned) [Example 614, (S) or (R)-N′-((1,2,3,5,6,7-hexahydro-s-indacen-4-yl)carbamoyl)-4-(isopropyl(methyl)amino) benzenesulfonimidamide]
8 | > 30 | CC(C)Cc1ccc(S(N)(=O)=NC(=O)Nc2c3c(cc4c2CCC4)CCC3)cc1 (single isomer, unassigned) [Example 618, (S) or (R)-N′-((1,2,3,5,6,7-hexahydro-s-indacen-4-yl)carbamoyl)-4-isobutylbenzene-sulfonimidamide]

Second part, the molecule before the results:

Row | SMILES | IC50 [µM]
9 | COc1cc(CN(C)C)ccc1S(N)(=O)=NC(=O)Nc1c2c(cc3c1CCC3)CCC2 (single isomer, unassigned) [Example 607, (S) or (R)-4-((dimethylamino)methyl)-N′-((1,2,3,5,6,7-hexahydro-s-indacen-4-yl)carbamoyl)-2-methoxybenzene-sulfonimidamide] | > 30
10 | NS(=O)(=NC(=O)Nc1c2c(cc3c1CCC3)CCC2)c1ccccc1 (single isomer, unassigned) [Example 612, (R) or (S)-N′-((1,2,3,5,6,7-hexahydro-s-indacen-4-yl)carbamoyl) benzenesulfonimidamide] | > 30
11 | NS(=O)(=NC(=O)Nc1c2c(cc3c1CCC3)CCC2)c1ccc(CN2CCC(F)(F)C2)cc1 (single isomer, unassigned) [Example 621, (S) or (R)-4-((3,3-difluoropymolidin-1-yl)methyl)-N′-((1,2,3,5,6,7-hexahydro-s-indacen-4-yl)carbamoyl) benzenesulfonimidamide] | > 30
12 | NS(=O)(=NC(=O)Nc1c2c(cc3c1CCC3)CCC2)c1ccc(C2CCNC2)cc1F (single isomer, unassigned) [Example 622, (R,S) or (S,S)-2-fluoro-N′-((1,2,3,5,6,7-hexahydro-s-indacen-4-yl)carbamoyl)-4-pyrrolidin-3-yl) benzenesulfonimidamide] | > 30

Same assay, conditions: hTHP-1 assay containing 2% fetal bovine serum, Table B2, class symbols; read-out: IC50

Row | IC50 [µM] | SMILES
13 | 0.2 to 1 | CNC(C)(C)c1ccc(S(N)(=O)=NC(=O)Nc2c3c(cc4c2CCC4)CCC3)cc1 (single isomer, unassigned) [Example 602, (R) or (S)-N′-((1,2,3,5,6,7-hexahydro-s-indacen-4-yl)carbamoyl)-4-(2-(methylamino)propan-2-yl) benzenesuIfonimidamide]
14 | 5 to 30 | CNC(C)(C)c1ccc(S(N)(=O)=NC(=O)Nc2c3c(cc4c2CCC4)CCC3)cc1 (single isomer, unassigned) [Example 603, (R) or (S)-N′-((1,2,3,5,6,7-hexahydro-s-indacen-4-yl)carbamoyl)-4-(2-(methylamino)propan-2-yl) benzenesulfonimidamide]

Second part, the molecule before the results:

Row | SMILES | IC50 [µM]
15 | CC(C)(O)c1ncc(S(N)(=O)=NC(=O)Nc2c3c(c(Cl)c4c2CCC4)CCC3)s1 (single isomer, unassigned) [Example 597, (R) or (S)-N′-((8-chloro-1,2,3,5,6,7-hexahydro-s-indacen-4-yl)carbamoyl)-2-(2-hydroxypropan-2-yl)thiazole-5-sulfonimidamide] | 0.04 to 0.2
16 | CC(C)(O)c1csc(S(N)(=O)=NC(=O)Nc2c3c(cc4c2CCC4=O)CCC3)c1 (single isomer, unassigned) [Example 598, (R) or (S)-4-(2-hydroxypropan-2-yl)-N′-((1-oxo-1,2,3,5,6,7-hexahydro-s-indacen-4-yl)carbamoyl) thiophene-2-sulfonimidamide] | 0.2 to 1
17 | CC(C)(O)c1csc(S(N)(=O)=NC(=O)Nc2c3c(cc4c2CCC4=O)CCC3)c1 (single isomer, unassigned) [Example 599, (S) or (R)-4-(2-hydroxypropan-2-yl)-N′-((1-oxo-1,2,3,5,6,7-hexahydro-s-indacen-4-yl)carbamoyl) thiophene-2-sulfonimidamide] | 5 to 30
18 | CC(C)(O)c1cc(F)c(S(N)(=O)=NC(=O)Nc2c3c(cc4c2CCC4=O)CCC3)s1 (single isomer, unassigned) [Example 600, (R) or (S)-3-fluoro-5-(2-hydroxypropan-2-yl)-N′-((1-oxo-1,2,3,5,6,7-hexahydro-s-indacen-4-yl)carbamoyl)thiophene-2-sulfonimidamide] | 0.2 to 1
19 | CC(C)(O)c1cc(F)c(S(N)(=O)=NC(=O)Nc2c3c(cc4c2CCC4=O)CCC3)s1 (single isomer, unassigned) [Example 601, (S) or (R)-3-fluoro-5-(2-hydroxypropan-2-yl)-N′-((1-oxo-1,2,3,5,6,7-hexahydro-s-indacen-4-yl)carbamoyl)thiophene-2-sulfonimidamide] | 5 to 30
20 | CN(C)Cc1ccc([S@](N)(=O)=NC(=O)Nc2c3c(cc4c2CCC4)CCC3)cc1F (single isomer, unassigned) [Example 605, (R) or (S)-4-((dimethylamino)methyl)-3-fluoro-N′-((1,2,3,5,6,7-hexahydro-s-indacen-4-yl)carbamoyl) benzenesulfonimidamide] | 0.2 to 1
21 | CN(C)Cc1ccc(S(N)(=O)=NC(=O)Nc2c3c(cc4c2CCC4)CCC3)cn1 (single isomer, unassigned) [Example 616, (S) or (R)-6-((dimethylamino)methyl)-N′-((1,2,3,5,6,7-hexahydro-s-indacen-4-yl)carbamoyl) pyridine-3-sulfonimidamide] | 5 to 30
22 | CN(C)Cc1ccc(S(N)(=O)=NC(=O)Nc2c3c(cc4c2CCC4)CCC3)cn1 (single isomer, unassigned) [Example 617, (R) or (S)-6-((dimethylamino)methyl)-N′-((1,2,3,5,6,7-hexahydro-s-indacen-4-yl)carbamoyl) pyridine-3-sulfonimidamide] | 0.2 to 1

Same assay, conditions: hTHP-1 assay containing 2% fetal bovine serum, Table B2, given as bound; read-out: IC50

Row | IC50 [µM] | SMILES
23 | > 30 | CN(Cc1ccc(S(N)(=O)=NC(=O)Nc2c3c(cc4c2CCC4)CCC3)cc1)CC(F)(F)F (single isomer, unassigned) [Example 609, (S) or (R)-N′-((1,2,3,5,6,7-hexahydro-s-indacen-4-yl)carbamoyl)-4-((methyl(2,2,2-trifluoroethyl)amino)methyl) benzenesulfonimidamide]
24 | > 30 | CC(C)Cc1ccc(S(N)(=O)=NC(=O)Nc2c3c(cc4c2CCC4)CCC3)cc1 (single isomer, unassigned) [Example 619, (R) or (S)-N′-((1,2,3,5,6,7-hexahydro-s-indacen-4-yl)carbamoyl)-4-isobutylbenzene-sulfonimidamide]

Second part, the molecule before the results:

Row | SMILES | IC50 [µM]
25 | CN(C)Cc1ccc([S@@](N)(=O)=NC(=O)Nc2c3c(cc4c2CCC4)CCC3)cc1F (single isomer, unassigned) [Example 604, (S) or (R)-4-((dimethylamino)methyl)-3-fluoro-N′-((1,2,3,5,6,7-hexahydro-s-indacen-4-yl)carbamoyl) benzenesulfonimidamide] | > 30
26 | NS(=O)(=NC(=O)Nc1c2c(cc3c1CCC3)CCC2)c1ccccc1 (single isomer, unassigned) [Example 613, (S) or (R)-N′-((1,2,3,5,6,7-hexahydro-s-indacen-4-yl)carbamoyl) benzenesulfonimidamide] | > 30
27 | NS(=O)(=NC(=O)Nc1c2c(cc3c1CCC3)CCC2)c1ccc(C2CCNC2)cc1F (single isomer, unassigned) [Example 623, (S,S) or (R,S)-2-fluoro-N′-((1,2,3,5,6,7-hexahydro-s-indacen-4-yl)carbamoyl)-4-(- pyrrolidin-3-yl) benzenesulfonimidamide] | > 30
